Assay results from ChEMBL document CHEMBL1201862, “PubChem BioAssay data set” (2004).
Active and inactive are the calls of the source. Unless noted, the rule behind the calls is not given here.

Tests used:
Transthyretin = Transthyretin (Homo sapiens, UniProt P02766); assay: Luminescence-based cell-based high throughput dose response assay to identify activators of Transthyretin (TTR) transcription.; assay type: functional
Heat shock protein HSP90 = Heat shock protein HSP90 (Homo sapiens, UniProt P07900+P08238); assay: Hsp90 blockade concentration-response – dose response (AID 712); assay type: functional
[1] = ATP-based viability loss in HepG2 cells – cell-based, CellTiter-Glo luminescence, dry powder, set 3, cytotoxicity control, dose response (AID 720594); assay type: functional
[2] = ATP-based viability loss in HEK293T cells – cell-based, CellTiter-Glo luminescence, dry powder, set 2, cytotoxicity control, dose response (AID 720595); assay type: functional; settings: HEK293
[3] = dual-tagged ARNT PAS-B bead signal quenchers – biochemical, dry powder, artefact control for ARNT/TACC3 disruptor project, dose response (AID 720564)
[4] = rise of 2N DNA cells, HeLa – IC50, dose response (AID 1117349); assay type: functional, cell-based
[5] = rise of 4N DNA cells, HeLa – IC50, dose response (AID 1117351); assay type: functional, cell-based
[6] = M. tuberculosis H37Rv growth inhibitors, H37Rv strain (AID 1626); assay type: functional
[7] = A549 lung cell viability reduction – CellTiter-Glo luminescence, cherry-pick, cytotoxicity control, dose response (AID 743484); assay type: functional, cell-based
[8] = HepG2 viability loss by ATP level – cell-based, CellTiter-Glo luminescence, cherry-pick, set 4, cytotoxicity control, dose response (AID 743480); assay type: functional
[9] = biological target: NAD-dependent protein deacylase sirtuin-5, mitochondrial (Homo sapiens, UniProt Q9NXA8); assay: sirtuin-5 deacylation blockers, concentration series – biochemical, fluorescence imaging, cherry-pick, set 5, dose response (AID 720591);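 also: desuccinylation of succinyl peptide AMC substrate read as fluorescence after trypsin release; potency of inhibitors that lower fluorescence and may act on trypsin instead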
[10] = toxicity to A549 lung cells – cell-based, plate reader, dry powder, set 6, cytotoxicity control, dose response (AID 743312); assay type: functional
cells = settings: HEK293
[11] = MITF Orthogonal Assay: SK-MEL-5 CTG Assay Measured in Cell-Based System Using Plate Reader - 2084-02_Inhibitor_Dose_DryPowder_Activity_Set7.; assay type: functional
[12] = MITF: Counter assay: A375 proliferation Measured in Cell-Based System Using Plate Reader - 2084-03_Inhibitor_Dose_DryPowder_Activity_Set8.; assay type: functional; settings: A-375
[13] = inhibitors of TRPM1-promoter reporter in SK-MEL-5 – cell-based, luciferase, dry powder, set 8, MITF inhibitor project, dose response (AID 624430); assay type: functional
[14] = viability loss in A549 lung cells – cell-based, 24 h, CellTiter-Glo luminescence, cherry-picks, cytotoxicity control, dose response (AID 1053115); assay type: functional; settings: A549, 24 h
[15] = P. falciparum Dd2 growth inhibitors, dose response, SYBR Green, cherry-picked samples (AID 1159567); assay type: functional, cell-based
NADPH oxidase 1 = biological target: T1, NADPH oxidase 1 (Homo sapiens, UniProt Q9Y5S8); assay: Late-stage luminescence-based cell-based dose response assay to identify inhibitors of NADPH oxidase 1 (NOX1): Synthesized analogs.; assay type: functional
T1 sequence (Q9Y5S8 whole entry): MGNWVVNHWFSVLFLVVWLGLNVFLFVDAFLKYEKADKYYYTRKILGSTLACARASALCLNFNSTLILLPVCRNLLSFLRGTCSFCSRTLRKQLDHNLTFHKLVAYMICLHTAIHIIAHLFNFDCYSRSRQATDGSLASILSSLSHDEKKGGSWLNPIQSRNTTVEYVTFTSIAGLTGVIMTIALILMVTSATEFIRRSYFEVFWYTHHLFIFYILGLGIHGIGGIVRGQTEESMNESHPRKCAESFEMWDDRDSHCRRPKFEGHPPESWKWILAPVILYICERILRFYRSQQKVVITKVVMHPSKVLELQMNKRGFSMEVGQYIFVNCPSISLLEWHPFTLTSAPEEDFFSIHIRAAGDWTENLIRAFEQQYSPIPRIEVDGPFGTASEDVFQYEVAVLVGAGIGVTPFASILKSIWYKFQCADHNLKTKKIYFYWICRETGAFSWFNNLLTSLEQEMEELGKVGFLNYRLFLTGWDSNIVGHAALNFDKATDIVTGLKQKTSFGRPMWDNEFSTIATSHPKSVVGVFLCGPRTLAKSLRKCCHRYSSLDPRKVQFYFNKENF

[16] = Late stage assay provider results from the probe development effort to identify inhibitors of the Plasmodium falciparum M18 Aspartyl Aminopeptidase (M18AAP): radiolabel-based cell-based dose response assay to identify compounds that inhibit P. falciparum growth in RBCs, Set 2..; assay type: functional
[17] = Dd2 parasite growth inhibition in erythrocytes – SYBR Green, dry powder samples, set 4, dose response (AID 1159572); assay type: functional, cell-based
[18] = reduction of Shn3 3'UTR-driven luciferase in osteoblasts – cell-based, Clone20 osteoblasts, firefly luciferase, cherry-picked, dose response (AID 624132); assay type: functional;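 also: firefly luciferase luminescence from reporter carrying the Shn3 3'UTR in osteoblasts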
[19] = loss of viability in HepG2 cells – cell-based, CellTiter-Glo, cherry-picked, cytotoxicity control for Shn3 inhibitor project, dose response (AID 624134); assay type: functional
[20] = non-specific 3'UTR reporter inhibition in Clone20-Shn3RL – cell-based, Renilla luciferase, cherry-picked, counter-screen for Shn3 inhibitor project, dose response (AID 624133); assay type: functional
[21] = Shn3 3'UTR reporter signal decrease – cell-based, Clone20 osteoblasts, firefly luciferase, cherry-pick, set 2, Schnurri-3 inhibitor project, dose response (AID 720490); assay type: functional;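 also: actives lower the luminescence signal as inhibitors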

Sequence of NAD-dependent protein deacylase sirtuin-5, mitochondrial (Q9NXA8 whole entry): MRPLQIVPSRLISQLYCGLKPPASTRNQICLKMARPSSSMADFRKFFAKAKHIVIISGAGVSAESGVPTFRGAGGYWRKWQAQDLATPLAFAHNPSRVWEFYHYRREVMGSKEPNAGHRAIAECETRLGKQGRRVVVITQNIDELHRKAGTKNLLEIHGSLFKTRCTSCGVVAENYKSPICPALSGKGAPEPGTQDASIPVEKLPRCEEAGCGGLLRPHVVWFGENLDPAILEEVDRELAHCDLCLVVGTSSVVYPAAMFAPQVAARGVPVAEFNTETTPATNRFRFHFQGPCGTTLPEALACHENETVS

Cc1cc(C(=O)N2CCc3ccccc32)n(-c2ccccc2)n1
EC50 (Transthyretin): > 167 µM (inactive)

Cc1cccc(NC(=O)c2c(O)c3cccc4c3n(c2=O)CCC4)n1
IC50 (Heat shock protein HSP90): > 50 µM

CC1CCN(S(=O)(=O)c2ccc(C(=O)Nc3nnc(-c4ccccc4)o3)cc2)CC1
AC50 [1]: > 52 µM (inactive)
AC50 [2]: 2.57 µM (active)
AC50 [3]: 86.8 µM (active)

CCCCCCCCCCCCCCCC[N+](C)(C)Cc1ccccc1 [CETALKONIUM CHLORIDE]
IC50 [4]: > 10 µM (inactive)
IC50 [5]: > 10 µM (inactive)

COc1ccc(NC(=O)c2ccc(-c3ccc([N+](=O)[O-])cc3)o2)cc1
IC50 [6]: > 100 µM (active)
AC50 [7]: > 52 µM (inactive)
AC50 [8]: > 52 µM (inactive)

CCOc1ccc(CCN2C(=O)C(=O)N([C@@H](Cc3ccccc3)CN3CCC[C@@H]3CN3C(=O)C(=O)NC[C@@H]3Cc3ccc(O)cc3)C[C@@H]2Cc2ccccc2)cc1
AC50 [9]: > 30 µM (inactive)

Cc1ccc(OCCn2cnc3ccccc32)c(C(C)C)c1
AC50 [10]: 24.5 µM (active)
AC50 (cells): 39.8 µM (active)

CN1CCN(C2=C(Nc3ccc(Br)cc3)C(=O)c3ccccc3C2=O)CC1
AC50 [11]: 7.8 µM (active)
AC50 [12]: 27 µM (active)
AC50 [13]: 5.56 µM (active)

OC[C@H]1Nc2ccc(-c3ccccc3)cc2[C@H]2[C@@H]1CCN2Cc1ccc(F)cc1
AC50 [14]: 46.4 µM (active)
AC50 [15]: 1.25 µM (active)

COC(=O)Nc1ccc2c(c1)N(C(=O)CCCl)c1ccccc1S2
IC50 (NADPH oxidase 1): > 50 µM (not active)

COc1ccc(CNc2c3ccccc3nc3ccccc23)cc1OC
IC50 [16]: 1.05 µM (active)

COc1ccc2c3c([nH]c2c1)[C@H](CO)NCC31CCN(C(=O)Nc2ccccc2F)CC1
AC50 [17]: 1.52 µM (active)

Cc1ccc(CNC(=O)c2cc3c(C)nc4ccccc4c3o2)cc1
AC50 [18]: 2.49 µM (active)
AC50 [19]: 64.3 µM (active)
AC50 [20]: 12.2 µM (active)
AC50 [21]: 4.02 µM (active)
